Columns and labels:
Experiment in all cases: biochemical
Design in all cases: KINOMEscan competition binding, DNA-tagged kinase against immobilised ligand, qPCR read-out
Conditions in all cases: read-out: Percent Control
[1] = target: AURKB (Homo sapiens, UniProt Q96GD4)
[2] = target: BLK (Homo sapiens, UniProt P51451)
[3] = target: CAMK1G (Homo sapiens, UniProt Q96NX5)
[4] = target: CDK8 (Homo sapiens, UniProt P49336)
[5] = target: ERN1 (Homo sapiens, UniProt O75460)
[6] = target: FGFR3 (Homo sapiens, UniProt P22607)
[7] = target: INSR (Homo sapiens, UniProt P06213)
[8] = target: MAK (Homo sapiens, UniProt P20794)
[9] = target: MAP3K2 (Homo sapiens, UniProt Q9Y2U5)
[10] = target: MAPK15 (Homo sapiens, UniProt Q8TD08)
[11] = target: MAPK3 (Homo sapiens, UniProt P27361)
[12] = target: MAPK4 (Homo sapiens, UniProt P31152)
[13] = target: PIK3C3 (Homo sapiens, UniProt Q8NEB9)
[14] = target: PRKD1 (Homo sapiens, UniProt Q15139)
[15] = target: PRKD2 (Homo sapiens, UniProt Q9BZL6)
[16] = target: PRKD3 (Homo sapiens, UniProt O94806)
[17] = target: ROS1 (Homo sapiens, UniProt P08922)
[18] = target: STK10 (Homo sapiens, UniProt O94804)
[19] = target: T1, ZAK (Homo sapiens, UniProt Q9NYL2)
T1 construct: gene MAP3K20

[20] = target: ZAP70 (Homo sapiens, UniProt P43403)

Sequence of STK10 (O94804 whole entry): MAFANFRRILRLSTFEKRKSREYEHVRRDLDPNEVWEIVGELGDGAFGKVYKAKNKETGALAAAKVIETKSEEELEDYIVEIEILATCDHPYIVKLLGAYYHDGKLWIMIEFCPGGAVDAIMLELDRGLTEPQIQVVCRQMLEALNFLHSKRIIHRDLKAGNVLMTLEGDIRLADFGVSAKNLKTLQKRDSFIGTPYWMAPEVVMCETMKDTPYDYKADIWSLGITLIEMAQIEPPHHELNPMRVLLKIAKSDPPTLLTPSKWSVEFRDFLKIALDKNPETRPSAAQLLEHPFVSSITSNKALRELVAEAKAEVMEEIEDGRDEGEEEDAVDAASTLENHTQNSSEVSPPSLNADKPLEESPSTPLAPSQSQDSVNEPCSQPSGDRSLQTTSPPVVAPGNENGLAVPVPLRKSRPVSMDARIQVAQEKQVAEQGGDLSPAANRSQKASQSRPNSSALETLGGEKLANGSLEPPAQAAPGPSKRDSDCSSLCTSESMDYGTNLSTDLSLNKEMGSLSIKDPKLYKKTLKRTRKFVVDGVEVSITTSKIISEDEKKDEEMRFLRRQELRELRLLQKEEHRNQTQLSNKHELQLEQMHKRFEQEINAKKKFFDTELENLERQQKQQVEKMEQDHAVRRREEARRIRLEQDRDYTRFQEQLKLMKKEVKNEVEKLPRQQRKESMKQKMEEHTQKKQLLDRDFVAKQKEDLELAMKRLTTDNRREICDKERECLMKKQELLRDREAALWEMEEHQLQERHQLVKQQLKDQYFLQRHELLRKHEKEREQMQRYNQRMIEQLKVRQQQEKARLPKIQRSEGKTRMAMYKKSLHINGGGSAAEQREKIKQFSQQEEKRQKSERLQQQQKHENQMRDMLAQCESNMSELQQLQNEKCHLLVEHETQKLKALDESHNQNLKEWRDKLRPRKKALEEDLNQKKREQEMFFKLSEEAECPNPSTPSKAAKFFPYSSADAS
Sequence of MAP3K2 (Q9Y2U5 whole entry): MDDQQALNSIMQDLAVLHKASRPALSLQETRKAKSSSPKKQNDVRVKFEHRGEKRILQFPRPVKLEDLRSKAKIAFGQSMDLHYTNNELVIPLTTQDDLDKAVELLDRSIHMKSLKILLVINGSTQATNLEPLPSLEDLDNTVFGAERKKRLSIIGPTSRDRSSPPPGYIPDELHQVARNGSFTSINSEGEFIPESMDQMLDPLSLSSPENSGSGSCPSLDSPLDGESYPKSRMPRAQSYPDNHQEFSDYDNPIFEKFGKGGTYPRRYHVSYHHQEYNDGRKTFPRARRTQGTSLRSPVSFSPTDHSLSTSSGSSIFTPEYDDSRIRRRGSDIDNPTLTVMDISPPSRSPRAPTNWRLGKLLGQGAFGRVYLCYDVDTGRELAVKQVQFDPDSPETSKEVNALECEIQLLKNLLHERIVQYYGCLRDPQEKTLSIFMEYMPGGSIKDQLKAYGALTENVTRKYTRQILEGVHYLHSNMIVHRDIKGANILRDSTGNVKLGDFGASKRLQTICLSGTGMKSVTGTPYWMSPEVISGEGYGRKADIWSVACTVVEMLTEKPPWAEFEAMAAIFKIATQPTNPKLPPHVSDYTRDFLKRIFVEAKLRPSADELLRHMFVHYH
Sequence of PRKD1 (Q15139 whole entry): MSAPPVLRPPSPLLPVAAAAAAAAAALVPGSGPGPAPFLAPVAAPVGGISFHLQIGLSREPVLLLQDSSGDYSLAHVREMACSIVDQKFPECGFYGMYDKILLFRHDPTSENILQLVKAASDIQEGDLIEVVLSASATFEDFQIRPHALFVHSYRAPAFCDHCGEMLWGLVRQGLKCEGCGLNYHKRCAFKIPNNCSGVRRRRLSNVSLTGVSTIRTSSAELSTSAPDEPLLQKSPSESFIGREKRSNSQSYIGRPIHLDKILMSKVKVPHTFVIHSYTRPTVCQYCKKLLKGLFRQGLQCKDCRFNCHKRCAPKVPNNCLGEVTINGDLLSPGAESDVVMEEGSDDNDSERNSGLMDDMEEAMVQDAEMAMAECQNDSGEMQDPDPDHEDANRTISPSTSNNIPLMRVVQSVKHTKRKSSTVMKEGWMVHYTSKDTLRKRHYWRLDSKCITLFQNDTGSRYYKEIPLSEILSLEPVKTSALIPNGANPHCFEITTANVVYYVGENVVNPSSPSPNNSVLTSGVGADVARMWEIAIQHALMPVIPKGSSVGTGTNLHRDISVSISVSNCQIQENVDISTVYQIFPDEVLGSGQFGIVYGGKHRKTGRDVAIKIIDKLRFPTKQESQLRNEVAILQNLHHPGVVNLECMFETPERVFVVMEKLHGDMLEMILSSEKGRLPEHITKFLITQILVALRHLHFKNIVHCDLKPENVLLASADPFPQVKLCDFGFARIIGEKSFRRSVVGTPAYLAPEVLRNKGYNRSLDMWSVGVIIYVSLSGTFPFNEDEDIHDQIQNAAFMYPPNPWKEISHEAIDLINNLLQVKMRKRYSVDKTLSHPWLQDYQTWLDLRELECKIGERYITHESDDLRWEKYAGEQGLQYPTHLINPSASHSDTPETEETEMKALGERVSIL
Sequence of PRKD2 (Q9BZL6 whole entry): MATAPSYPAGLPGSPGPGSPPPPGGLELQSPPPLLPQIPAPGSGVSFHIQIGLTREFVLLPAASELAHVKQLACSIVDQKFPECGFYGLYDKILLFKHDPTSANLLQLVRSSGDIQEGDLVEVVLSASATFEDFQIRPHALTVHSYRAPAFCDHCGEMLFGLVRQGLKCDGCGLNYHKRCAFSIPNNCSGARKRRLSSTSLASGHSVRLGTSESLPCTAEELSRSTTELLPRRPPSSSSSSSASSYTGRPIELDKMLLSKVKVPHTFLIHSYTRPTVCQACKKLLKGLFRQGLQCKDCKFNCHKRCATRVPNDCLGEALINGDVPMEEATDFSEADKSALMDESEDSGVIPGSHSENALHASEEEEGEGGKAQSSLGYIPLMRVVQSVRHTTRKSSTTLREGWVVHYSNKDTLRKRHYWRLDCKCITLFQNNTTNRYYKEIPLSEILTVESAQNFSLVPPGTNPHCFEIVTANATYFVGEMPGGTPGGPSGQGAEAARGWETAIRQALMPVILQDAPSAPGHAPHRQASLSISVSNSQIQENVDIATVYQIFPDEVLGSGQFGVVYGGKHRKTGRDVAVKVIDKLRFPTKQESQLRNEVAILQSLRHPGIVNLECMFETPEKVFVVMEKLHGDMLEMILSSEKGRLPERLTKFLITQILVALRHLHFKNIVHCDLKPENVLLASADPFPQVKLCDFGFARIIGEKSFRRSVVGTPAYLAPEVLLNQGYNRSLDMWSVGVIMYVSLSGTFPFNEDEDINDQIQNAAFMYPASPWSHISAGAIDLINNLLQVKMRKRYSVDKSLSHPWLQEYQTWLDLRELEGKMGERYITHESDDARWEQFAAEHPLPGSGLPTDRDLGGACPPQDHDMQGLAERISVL
Sequence of CDK8 (P49336 whole entry): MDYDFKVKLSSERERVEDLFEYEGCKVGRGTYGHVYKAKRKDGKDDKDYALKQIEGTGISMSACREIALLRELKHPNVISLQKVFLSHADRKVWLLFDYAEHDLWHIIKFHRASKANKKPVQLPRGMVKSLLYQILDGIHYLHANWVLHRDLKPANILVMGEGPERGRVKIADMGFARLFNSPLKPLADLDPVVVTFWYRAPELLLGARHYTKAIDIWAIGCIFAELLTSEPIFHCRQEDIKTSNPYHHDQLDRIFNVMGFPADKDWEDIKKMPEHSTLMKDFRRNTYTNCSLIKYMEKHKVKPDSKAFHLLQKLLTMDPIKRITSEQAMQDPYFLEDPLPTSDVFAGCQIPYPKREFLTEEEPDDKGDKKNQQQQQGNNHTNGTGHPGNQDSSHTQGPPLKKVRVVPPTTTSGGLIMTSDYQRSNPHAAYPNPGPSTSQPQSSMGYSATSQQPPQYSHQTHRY
Sequence of AURKB (Q96GD4 whole entry): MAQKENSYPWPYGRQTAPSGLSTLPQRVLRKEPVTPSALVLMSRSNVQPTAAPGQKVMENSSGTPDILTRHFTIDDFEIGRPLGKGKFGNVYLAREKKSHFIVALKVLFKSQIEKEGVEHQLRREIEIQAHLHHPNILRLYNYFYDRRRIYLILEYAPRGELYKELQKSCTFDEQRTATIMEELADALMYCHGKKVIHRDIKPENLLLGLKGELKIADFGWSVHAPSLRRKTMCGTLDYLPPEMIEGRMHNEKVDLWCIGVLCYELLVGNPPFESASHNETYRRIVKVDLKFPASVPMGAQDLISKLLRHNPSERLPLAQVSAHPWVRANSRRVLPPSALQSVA
Sequence of MAPK4 (P31152 whole entry): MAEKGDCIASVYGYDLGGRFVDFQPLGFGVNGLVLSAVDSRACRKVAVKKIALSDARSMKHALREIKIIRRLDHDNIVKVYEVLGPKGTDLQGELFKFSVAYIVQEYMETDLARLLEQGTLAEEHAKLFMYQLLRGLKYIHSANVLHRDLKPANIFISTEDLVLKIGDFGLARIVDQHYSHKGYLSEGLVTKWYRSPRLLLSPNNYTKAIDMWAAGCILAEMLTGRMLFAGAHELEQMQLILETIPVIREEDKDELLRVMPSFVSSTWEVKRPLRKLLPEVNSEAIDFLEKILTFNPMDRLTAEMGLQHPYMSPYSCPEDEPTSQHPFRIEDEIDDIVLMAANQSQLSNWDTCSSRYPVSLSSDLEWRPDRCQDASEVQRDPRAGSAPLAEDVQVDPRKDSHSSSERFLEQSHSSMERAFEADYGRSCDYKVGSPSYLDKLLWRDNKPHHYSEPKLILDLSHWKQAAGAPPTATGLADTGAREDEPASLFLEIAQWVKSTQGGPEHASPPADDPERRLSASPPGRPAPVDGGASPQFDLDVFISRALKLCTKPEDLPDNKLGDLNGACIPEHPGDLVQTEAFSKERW

Work on `Oc1ccc(C2=Cc3ccc(O)cc3OC2)cc1` [compound 1, idronoxil] yielded a remaining binding at 10 µM [1] of 12%, a remaining binding at 10 µM [2] of 57% and a remaining binding at 10 µM [3] of 80%. The remaining binding at 10 µM [4] was 58%, the remaining binding at 10 µM [5] was 66% and the remaining binding at 10 µM [6] was 80%. For the same compound, the remaining binding at 10 µM [7] was 71%, the remaining binding at 10 µM [8] was 100% and the remaining binding at 10 µM [9] was 83%. For the same compound, the remaining binding at 10 µM [10] was 49%, the remaining binding at 10 µM [11] was 94% and the remaining binding at 10 µM [12] was 100%. It also gave a remaining binding at 10 µM [13] of 34%, a remaining binding at 10 µM [14] of 96% and a remaining binding at 10 µM [15] of 94%. It also gave a remaining binding at 10 µM [16] of 85%, a remaining binding at 10 µM [17] of 73% and a remaining binding at 10 µM [18] of 100%. It also gave a remaining binding at 10 µM [19] of 54% and a remaining binding at 10 µM [20] of 78%.
